Data reported in patent publication US10653691B2, “Method of promoting remyelination” (Case Western Reserve University, priority 2013, dated 2020).
Entries after “also recorded” stand apart in the source; their conditions may differ.

Assays:
[1] = tested on: corpus callosum of mouse pups; experiment: Developmental myelination in mouse pups; format: in vivo; settings: for number of CC1+ oligodendrocytes in the lateral corpus callosum / portion/length of corpus callosum covered by MBP+ fibres: pups treated daily for 4 days from postnatal day 2, clobetasol 2 mg/kg, miconazole 10 mg/kg i.p., vs vehicle
Text: On postnatal day 6 the pups were anaesthetized using ketamine and xylazine and euthanized by transcardial perfusion with 4% PFA. Tissue was fixed overnight in 4% PFA, equilibrated in 30% sucrose, and embedded in OCT. Sections (20 μm) were cut and processed for CC1 and MBP immunohistochemistry. ImageJ was then used to count and measure area of the corpus callosum as well as measure the extent of the corpus callosum length covered by MBP1 processes. Eight coronal sections containing corpus callosum rostral to the hippocampus from at least three animals per group were used for these analyses. To quantitate extent of MBP in the corpus callosum, a line was drawn through the centre of the corpus callosum from the lateral tip to the dorsal most extent of MBP expression in the corpus callosum. The length of this line was measured and then the dorsal-most point of the line was extended to the dorsal tip of the corpus callosum and measured to yield the length of the lateral callosum. The two numbers were divided to get the MBP/corpus callosum proportion. A two-tailed t-test was used to compare drug—with vehicle-treated groups.

[2] = tested on: mouse OPCs; experiment: OPC differentiation into MBP+ oligodendrocytes; format: cell-based; settings: for number of MBP+ oligodendrocytes by duration of treatment: 24, 48, 56 and 72 h; for number of MBP+ oligodendrocytes at 72 h by time of treatment start: treatment started at 0, 16, 24 or 48 h
Method: EpiSC-derived OPCs were seeded onto poly-D-lysine 96-well Viewplate or CellCarrier plates (PerkinElmer) coated with laminin (Sigma, L2020; 10 μgml^−1) using electronic multichannel pipetors. For the primary screen, 30,000 cells were seeded per well in screening medium (DMEM/F12 supplemented with N2 (R&D Systems), B-27 (Life Technologies), neurotrophin 3 (R&D Systems; 10 ng ml^−1), cAMP (Sigma; 50 μM), IGF-1 (R&D Systems; 100 ng ml^−1), noggin (R&D Systems; 100 ngml^−1)) and allowed to attach for 2 h before addition of drug. NIH Clinical Collection I and II drugs were added to assay plates with 0.1 ml pin replicators (Molecular Devices, Genetix; X5051), resulting in a final primary screening concentration of 5 μM. Thyroid-hormone-positive controls and DMSO vehicle controls were included in each assay plate. Cells were incubated under standard conditions (37° C., 5% CO2) for 3 days and fixed with 4% paraformaldehyde (PFA) in phosphate buffered saline (PBS). Fixed plates were permeabilized with 0.1% Triton X-100 and blocked with 10% donkey serum (v/v) in PBS for 2 h. Cells were labelled with MBP antibodies (Abcam, ab7349; 1:100) for 1 h at room temperature (˜22° C.) followed by detection with Alexa Fluorconjugated secondary antibodies (1:500) for 45 min. Nuclei were visualized by DAPI staining (Sigma; 1 μgml^−). All plates for the primary screen were processed and analyzed simultaneously to eliminate variability.
For the 5 μM in vitro screen, stained plates were imaged on the Opera confocal imaging system (PerkinElmer) and a set of 24×10 fields were collected from each well, resulting in an average of 10,000 cells being scored per well. For the dose-response (6.7 μM, 5 μM, 3.3 μM, 1.7 μM, 666 nM, 500 nM, and 333 nM) in vitro assays, plates were imaged on the Operetta High Content Imaging and Analysis system (PerkinElmer) and a set of 14×20 fields captured from each well resulting in an average of 3,300 cells being scored per well. […] Each traced nucleus region was then expanded by 50% and cross-referenced with the mature myelin protein (MBP or PLP1) stain to identify oligodendrocyte nuclei, and from this the percentage of oligodendrocytes was calculated. Processes emanating from oligodendrocyte nuclei were identified using the CSIRO2 analysis module within a custom Acapella script. Maximum mean process length (denoted ‘process length’) and mean process intensity (denoted ‘process intensity’) were generated on a per well basis. For the 5 μM in vitro screen, values were calculated and normalized to 100 for thyroid hormone (positive control)-treated wells and to 0 for DMSO(vehicle)-treated wells, on a per plate basis.

[3] = tested on: 414 different kinase isoforms; experiment: Kinase profiling (LanthaScreen, Z'-LYTE, Adapta); format: biochemical; settings: 414 kinase isoforms
Method: LanthaScreen, Z9-LYTE, and Adapta kinase assays were performed by Select Screen (Life Technologies). LanthaScreen Eu kinase assays were performed in Greiner low-volume 384-well plates. Assay buffer consisted of 50 mM HEPES pH 7.5, 0.01% BRIJ-35, 10 mM MgCl2, 1 mM EGTA. Each well consisted of this mixture: 4.0 μl of 4 μM test drug in assay buffer, 8 μl of 2× kinase/Eu antibody mixture, and 4 μl of 4×Alexa Fluor 647 tracer. Plates were incubated for 60 min at room temperature (˜22° C.), then Alexa Fluor 647 emission (665 nm) and Europium emission (615 nm) read on a fluorescent plate reader. Data were analysed by generating the emission ratio (665 nm/615 nm) for each test point and normalizing 0% to control wells with no known inhibitor and 100% to control wells with highest concentration of known inhibitor.
Z′-LYTE assays were performed in Corning, low volume 384-well plates. Assay buffer consisted of 50 mM HEPES pH 7.5, 0.01% BRIJ-35, 10 mM MgCl2, 1 mM EGTA. […] Coumarin emission (445 nm) and fluorescein emission (520 nm) were read on a fluorescent plate reader. Data were analysed by normalizing out background fluorescence then generating the emission ratio (445 nm/520 nm) for each test point. […]
Adapta assays were performed in Corning, low volume 384-well plates. […] Alexa Fluor 647 emission (665 nm) and europium emission (615 nm) were read on a fluorescent plate reader. […]

[4] = tested on: ERK1/2; experiment: Western blot of ERK1/2 phosphorylation in OPCs; format: cell-based, mouse; settings: OPCs treated for 1 h
Method: EpiSC-derived OPCs were seeded into poly-Lornithine/laminin coated six-well plates and allowed to attach for 2 h in DMEM/F12 without additional factors. Cells were treated with indicated inhibitors or DMSO for 1 h-SCH772984 (ChemieTek, […]), SB590885 (Tocris, 10 nM), LY294002 (Tocris, 10 μM), and PD0325901 (Stemgent, 1 μM). Cells were then stimulated with drug or FGF2 (R&DSystems; 20 ng ml^−1) for 1 h and then lysed in 200 μL RIPA buffer (0.15 M NaCl, 0.05M Tris, pH=8.0, 1 mM EDTA, 1% Triton X-100, 0.1% SDS, 10% glycerol, HALT protease and phosphatase inhibitor (Thermo Fisher) added just before use) and incubated on ice for 20 min. Lysates were centrifuged at 4° C. and supernatant collected. Protein concentrations were determined by Pierce BCA protein assay kit (Thermo Fisher). Equal amounts of protein were resolved in a reduced manner on NuPAGE 4-12% Bis-Tris gels (Life Technologies) and transferred onto PVDF membranes (Life Technologies). Blots were blocked in either 5% BSA (phosphoprotein) or 5% milk (non phosphoprotein). Primary antibodies were all from the same vendor (Cell Signaling) and included phospho-Erk1/2 (4370S, clone D13.14.4E; 1:2,000), ERK1/2 (9107S, clone 3A7; 1:2,000), phospho-glucocorticoid receptor (4161S; 1:1,000), and glucocorticoid receptor (12041, clone D6H2L; 1:1,000) followed by incubation with HRP-conjugated secondary antibodies and chemiluminescent enhancement by West Pico substrate (Thermo Fisher).

[5] = tested on: hESC- and hiPSC-derived human OPCs; experiment: Screening of human OPCs (MBP staining, HCA); format: cell-based; settings: 21 days; miconazole 1 μM, clobetasol 5 μM; vs DMSO
Text: Human OPCs were generated from skin fibroblast-derived human iPSC line (CWRU43, Tesar laboratory) and hESC lines H7 (NIH Human Embryonic StemCell RegistryWA07; NIH approval number NIHhESC-10-0061) and H9 (NIH Human Embryonic Stem Cell Registry WA09; NIH approval number NIHhESC-10-0062) as previously described. iPSC- and hESC-derived OPCs were characterized by Sox10 (R&D Systems, AF2864; 1:100) staining, and then seeded in 96-well plates at 40,000 cells per well for drug testing. […] Plates were fixed and stained with MBP (Abcam, ab7349; 1:100) then imaged on the Operetta system. We analysed results with slight modification to HCA Acapella scripts used for mouse oligodendrocytes.

[6] = tested on: PLP139-151- or MOG35-55-sensitized lymph node cells; experiment: Ex vivo lymphocyte recall assays; format: cell-based, mouse
[7] = 2 mg/kg daily i.p., postnatal day 2-6

Row | SMILES | mortality of treated pups [1, 7] | sickness and body weight of treated pups [1, 7] | number of CC1+ oligodendrocytes in the lateral corpus callosum [1] | portion/length of corpus callosum covered by MBP+ fibres [1] | number of MBP+ oligodendrocytes by duration of treatment [2] | number of MBP+ oligodendrocytes at 72 h by time of treatment start [2] | inhibition of kinase activity [3] | induction of ERK1/2 phosphorylation in OPCs [4] | human OPC differentiation [5] | proliferation and secretion of cytokines by sensitized lymph node cells ([6]; 10^−9-10^−5 M) | modulation of immune cell function ([6]; summary of immune cell survival and function assays)
1 | C[C@H]1C[C@H]2[C@@H]3CCC4=CC(=O)C=C[C@]4(C)[C@@]3(F)[C@@H](O)C[C@]2(C)[C@@]1(O)C(=O)CCl [clobetasol] | some animals of the cohort died before end of treatment | exhibited sickness on the basis of this treatment, with low body weight | significant increase in the number of CC1^+ oligodendrocytes; also recorded: marked increase in the number of CC1-positive oligodendrocytes | significantly larger portion of the corpus callosum was populated by MBP^+ fibre tracts; also recorded: significant increase in the length of the corpus callosum covered with aligned MBP^+ fibres | progressive, time-dependent increase | dependent on drug treatment within the first 24 h of differentiation | Neither clobetasol nor miconazole inhibited any of the kinases tested | did not induce ERK1/2 phosphorylation | enhanced human OPC differentiation | altered naïve T-cell differentiation and both the proliferation and secretion of cytokines | 
2 | Clc1ccc(COC(Cn2ccnc2)c2ccc(Cl)cc2Cl)c(Cl)c1 (stereo not drawn) [miconazole] |  |  | significant increase in the number of CC1^+ oligodendrocytes; also recorded: marked increase in the number of CC1-positive oligodendrocytes | significantly larger portion of the corpus callosum was populated by MBP^+ fibre tracts; also recorded: significant increase in the length of the corpus callosum covered with aligned MBP^+ fibres | progressive, time-dependent increase | dependent on drug treatment within the first 24 h of differentiation | Neither clobetasol nor miconazole inhibited any of the kinases tested | strong and sustained phosphorylation | enhanced human OPC differentiation, with miconazole exhibiting the most reproducible and potent effects |  | did not modulate immune cell function
